System: plasma fibrinogen
Test: Fibrinogen-lowering effect in spontaneously hypercholesterolemia (SHC) rats
Format: in vivo, rat
Experimental: Candesartan cilexetil (TCV-116; 0.5% methylcellulose 100 cp suspension; 1 mg/kg (2 ml/kg)) were administered orally to 10-week-old SHC rats once a day for a 6-week period. 0.5% methylcellulose 100 cp suspensions were administered to the control group (vehicle-treated group) in a volume of 2 ml/kg. Fibrinogen concentrations in plasma were measured as follows. At the end of experiments, the blood was withdrawn from aorta abdominalis into 3.8% trisodium citrate solution (Citral, Yamanouchi Pharmaceutical Co.,Ltd., final concentration of 0.38%) and the plasma were prepared by centrifuging at 3000 rpm at room temperature for 20 minutes. The fibrinogen concentration was determined using fibrinogen test RD (Roche Diagnostics) and the clot timer (B-10, Sarstedt, Inc.) with reference to a standard rat fibrinogen (F-6755, Sigma).

Compound: CCOc1nc2cccc(C(=O)OC(C)OC(=O)OC3CCCCC3)c2n1Cc1ccc(-c2ccccc2-c2nnn[nH]2)cc1 (centres unmarked) [TCV-116, 1-(cyclohexyloxycarbonyloxy)ethyl 2-ethoxy-1-[[2′-(1H-tetrazol-5-yl)biphenyl-4-yl]methyl]-benzimidazole-7-carboxylate]
- Fibrinogen level (SHC rat plasma, 1 mg/kg/day orally once a day for 6 weeks, Mean ± SE, n = 5, p < 0.01 vs vehicle): 354.0 ± 29.1 mg/dL
- Effect on plasma fibrinogen level versus control group (SHC rat, 1 mg/kg, comparison with vehicle-treated group): decreased the plasma fibrinogen level of SHC rat significantly
